The assay addresses Envelope glycoprotein gp160 (Human immunodeficiency virus 1, UniProt Q6QLK5). Description: inhibitors of HIV fusion peptide binding, primary screen, biochemical, uHTS, fluorescence dequenching (AID 1986).

We go through 1 compound from ChEMBL document CHEMBL1201862, “PubChem BioAssay data set” (2004).

Active and inactive are the calls of the source. Rule as the data show it: actives have a measured IC50 and inactives only a lower limit.

Envelope glycoprotein gp160, sequence (Q6QLK5 whole entry, the tested form may be a part): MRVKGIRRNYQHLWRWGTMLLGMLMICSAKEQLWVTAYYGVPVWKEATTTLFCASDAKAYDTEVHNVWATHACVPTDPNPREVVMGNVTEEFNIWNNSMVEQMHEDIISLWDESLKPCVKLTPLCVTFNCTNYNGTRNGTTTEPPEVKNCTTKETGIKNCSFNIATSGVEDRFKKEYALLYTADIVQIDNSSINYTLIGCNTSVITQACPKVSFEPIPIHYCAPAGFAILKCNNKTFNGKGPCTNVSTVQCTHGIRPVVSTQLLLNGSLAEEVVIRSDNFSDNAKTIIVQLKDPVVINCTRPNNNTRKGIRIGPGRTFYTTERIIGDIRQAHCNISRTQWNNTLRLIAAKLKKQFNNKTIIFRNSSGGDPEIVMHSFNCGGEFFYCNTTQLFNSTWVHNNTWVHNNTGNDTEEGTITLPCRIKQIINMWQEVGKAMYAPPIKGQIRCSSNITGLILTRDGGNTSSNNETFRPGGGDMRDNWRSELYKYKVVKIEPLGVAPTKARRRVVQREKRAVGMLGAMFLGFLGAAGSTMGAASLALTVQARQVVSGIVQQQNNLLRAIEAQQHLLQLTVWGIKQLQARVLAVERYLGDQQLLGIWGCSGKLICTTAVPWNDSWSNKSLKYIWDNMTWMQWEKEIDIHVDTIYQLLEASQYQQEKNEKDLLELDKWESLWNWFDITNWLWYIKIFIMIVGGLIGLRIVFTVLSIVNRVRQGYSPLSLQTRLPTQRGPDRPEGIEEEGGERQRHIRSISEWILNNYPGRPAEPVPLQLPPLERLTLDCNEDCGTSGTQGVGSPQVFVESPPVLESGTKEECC

In general, IC50 refers to the concentration needed to halve the response being measured. As for `Cc1c(CCC(=O)O)c(=O)oc2c(C)c3occ(-c4ccc(Br)cc4)c3cc12`, the IC50 is 21.3 µM (active).
